Patent US20250387381A1, “COMPOSITIONS AND METHODS FOR ENHANCED DRUG LOADING OF LONG-ACTING IN SITU FORMING IMPLANTS AND USES THEREOF” (The University of North Carolina at Chapel Hill, priority 2022, published 2025)
Converted amounts (≈) assume the structure as drawn.

How the values were obtained:
Mtb = conditions: cited from earlier work
[1] = RFB saturated solubility in DMSO and NMP with or without amphiphilic additives; conditions: for solubility at 1 day: organic solvent or mixture, thermodynamic from solid
[2] = human, in vivo, po, 150 mg; cited from earlier work
[3] = Stability of LA-RFB formulations stored at room temperature in the dark; assay type: physicochemical; conditions: solution of RFB in DMSO without polymer, same storage
Procedure: At predetermined time points (3, 4, 6, 9, 12, 15 months of incubation) 10 μL of formulation was diluted in 1 mL of DMSO, then further diluted at 1:1000 in DMSO for analysis by UV-vis absorbance spectrometer and HPLC to measure the drug concentration and drug degradation. As a control, RFB dissolved in DMSO (20 μg mL^−1 RFB solution) was incubated in the dark at RT.

## CO[C@H]1/C=C/O[C@@]2(C)Oc3c(C)c(O)c4c(c3C2=O)C2=NC3(CCN(CC(C)C)CC3)NC2=C(NC(=O)/C(C)=C\C=C\[C@H](C)[C@H](O)[C@@H](C)[C@@H](O)[C@@H](C)[C@H](OC(C)=O)[C@@H]1C)C4=O [RFB, Rifabutin]
Mtb
  RFB MIC: 0.064 µg/mL
[1]; 0.45% Kolliphor HS 15
  Highest RFB solubility in DMSO with Kolliphor HS 15: 564±7 mg RFB per mL of DMSO
[1]; Highest RFB solubility in NMP with Kolliphor HS 15, 8.8% Kolliphor HS 15
  solubility at 1 day: 702 ± 10 mg/mL (≈ 829 mM)
[1]; RFB maximum solubility in DMSO, DMSO alone, room temperature, mean±SD
  solubility at 1 day: 202 ± 22 mg/mL (≈ 238 mM)
[1]; RFB maximum solubility in NMP, NMP without additive, room temperature, mean±SD
  solubility at 1 day: 148 ± 34 mg/mL (≈ 175 mM)
[2]
  Cmax: 460 ng/mL
[3]
  Residual RFB after 3 months: 67%
  Residual RFB after 4 months: 53%
  Residual RFB after 6 months: 25%
